We go through one compound from patent US7790716B2, “Fab I inhibitors” (Affinium Pharmaceuticals, Inc., priority 1999, dated 2010).

This assay addresses T1, FabK (Streptococcus pneumoniae, UniProt Q9FBC5).
T1 sequence (Q9FBC5 1-324): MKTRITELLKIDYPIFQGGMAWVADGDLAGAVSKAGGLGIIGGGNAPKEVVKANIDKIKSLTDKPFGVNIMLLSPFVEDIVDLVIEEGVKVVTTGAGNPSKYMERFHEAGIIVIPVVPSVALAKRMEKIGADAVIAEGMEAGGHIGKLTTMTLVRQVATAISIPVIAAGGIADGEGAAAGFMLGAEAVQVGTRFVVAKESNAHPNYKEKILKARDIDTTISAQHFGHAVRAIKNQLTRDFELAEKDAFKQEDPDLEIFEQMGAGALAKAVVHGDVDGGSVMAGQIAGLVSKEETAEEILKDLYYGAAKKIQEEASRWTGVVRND
As to the kind of experiment: FabK Enzyme Inhibition Assay. In kind it is biochemical. How it is done:
FabK catalyses the reduction of enoyl-ACPs with the concomitant oxidation of NADH. The reduction of crotonoyl-ACP to butyryl-ACP can be monitored by following the change in absorbance at 340 nm as NADH is oxidized.
Assays were carried out in Costar 3696 half-area plates in a final assay volume of 150 uL on a Spectramax platereader. The substrates (NADH and crotonoyl-ACP) were incubated with FabK enzyme in 100 mM N-[2-acetamido]-2 iminodiacetic acid (ADA), pH 6.5, 100 mM NH4Cl, 4% glycerol at 30° C. and the reaction was monitored at 340 nm.
Using the above assay, compounds were tested for inhibition of FabK. 30 uL of inhibitor was added to a well of the plate. 30 uL of a 250 uM stock of NADH and 60 uL of a 67.5 uM stock of crotonoyl ACP were then added to the well. The plate was incubated at 30° C. for 5 min. The reaction was initiated by adding 30 uL of a 6.25 nM stock of enzyme to the well (also pre-incubated at 30° C.). The reaction was then monitored at A340 nm for 30 min at 30° C. Positive controls were reactions without compound. Negative controls were reactions without enzyme and without compound. Final concentrations in the assay mixture were 25 uM crotonoyl-ACP, 50 uM NADH, and 1.25 nM enzyme.
IC50s were determined for compounds by carrying out the assay at 8 different concentrations of compound (100 uM-0.75 uM) in duplicate. The IC50 was calculated using Grafit software (v 4.09). […]

Regarding `CN(Cc1cn(C)c2ccccc12)C(=O)/C=C/c1cnc2c(c1)CCC(=O)N2` [Example 62, (E)-N-methyl-N-(1-methyl-1H-indol-3-ylmethyl)-3-(7-oxo-5,6,7,8-tetrahydro-1,8-naphthyridin-3-yl)acrylamide], the “Fab K inhibition (result in words)” value is recorded as “dual Fab I/Fab K inhibitors”.
